Test system: pepper cells
Assay: Hygromycin sensitivity of pepper cells (growth of hypocotyl explants on SIM medium)
Format: cell-based, Capsicum annuum L. (pepper)
Experimental: The sensitivity of untransformed wild type (WT) and transformed (T) hypocotyl explants to hygromycin B was examined by using shoot induction medium containing 0, 5, 10, 20, 50 mg/l of hygromycin B (A). Fresh weight (mg) of hypocotyl explants growing on the medium containing hygromycin B (B).
Selection of transgenic cells was preformed in medium containing 20 mg/l hygromycin B in all experiments.

CN[C@H]1C[C@@H](N)[C@H](O)[C@@H](O[C@@H]2O[C@H](CO)[C@H](O)[C@@H]3OC4(O[C@H]23)O[C@H]([C@@H](N)CO)[C@H](O)[C@H](O)[C@H]4O)[C@@H]1O (some centres unmarked) [hygromycin B]
effect on the growth of pepper cells (hygromycin B 5 mg/l in SIM medium, after 14 days of culture): severe inhibitory effect
hygromycin B concentration up to which transgenic cells showed resistance (transgenic (transformed) pepper cells on SIM medium): up to 50 mg/l

From patent US20060037100A1, “Fungal resistant transgenic pepper plants and their production method” (priority 2004, published 2006)
